Test results: patent publication US20250049830A1, “PHARMACEUTICAL COMPOSITION FOR PREVENTING OR TREATING CANCER, COMPRISING SGLT-2 INHIBITOR AND GOSSYPOL” (HAIM BIO., LTD., priority 2019, published 2025)
Entries after “also recorded” stand apart in the source; their conditions may differ.

Experiments:
Format in all cases: cell-based, human
[1] = test system: lung cancer cell line A549; experiment: Cell viability (Cell Counting Kit-8) of lung cancer cell line A549 after drug treatment; conditions: SGLT-2 inhibitor 50 μM, gossypol 5 μM, phenformin 10 μM, FIG. 1c
Method: (§1) Each of the cell lines was cultured according to the ATCC guidelines in 10% FBS-containing RPMI 1640, DMEM, or Eagle's MEM medium supplemented with 1% penicillin-streptomycin (Gibco) in a 5% CO2 incubator (HERAcell 150i, Thermo Scientific, Waltham, MA, USA) at 37° C. and was used in the experiment.
The lung cancer cell line A549 cells prepared by the method of Example 1 were seeded into a 96-well plate at a concentration of 1×10^4 cells/well and cultured overnight at 37° C. in a 5% CO2 environment. […]
Thereafter, 100 μL of each cell culture and 10 μL of incubation buffer (CCK) were mixed together, placed in a 96-well plate, and incubated at room temperature for 1 hour, and then the absorbance was measured at a wavelength of 450 nm using a spectrophotometer (Synergy HTX Multi-Reader, BioTek, Winooski, VT, USA). At the same time, the number of cells in each sample was measured with a cell viability assay kit (Cell Counting Kit-8), and the measured value was calculated as a percentage of the number of cells in the negative control group to compare the number of cells between the samples. All experiments were repeated several times and the measured values were averaged.

[2] = test system: pancreatic cancer cell line Mia Paca-2; experiment: Cell viability (Cell Counting Kit-8) of pancreatic cancer cell line Mia Paca-2 after drug treatment; conditions: SGLT-2 inhibitor with gossypol and/or phenformin, FIGS. 2b, 2c
Method: as §1
At the same time, the number of cells in each sample was measured with a cell viability assay kit (Cell Counting Kit-8), and the measured value was calculated as a percentage of the number of cells in the negative control group to compare the number of cells between the samples. All experiments were repeated several times and the measured values were averaged. […] The numerical values on the drawings according to all examples below are expressed as mean±standard error of the mean (SEM), and * indicates statistical significance (**P<0.01, ***P<0.001).
According to the methods of Example 1 and Example 2, the pancreatic cancer cell line Mia Paca-2 cells were cultured, and then each drug was administered to the cells, followed by analysis of the cell viability.

[3] = test system: brain cancer cell line U87; experiment: Cell viability (Cell Counting Kit-8) of brain cancer cell line U87 after drug treatment; conditions: SGLT-2 inhibitor with gossypol and phenformin, FIGS. 3b, 3c
Method: The present inventors obtained the human lung cancer cell line A549, the pancreatic cancer cell line Mia Paca-2, the brain cancer cell line U87, and the colon cancer cell line SW480 from the American Type Culture Collection (ATCC). Each of the cell lines was cultured according to the ATCC guidelines in 10% FBS-containing RPMI 1640, DMEM, or Eagle's MEM medium supplemented with 1% penicillin-streptomycin (Gibco) in a 5% CO2 incubator (HERAcell 150i, Thermo Scientific, Waltham, MA, USA) at 37° C. and was used in the experiment.
At the same time, the number of cells in each sample was measured with a cell viability assay kit (Cell Counting Kit-8), and the measured value was calculated as a percentage of the number of cells in the negative control group to compare the number of cells between the samples. All experiments were repeated several times and the measured values were averaged.
According to the methods of Example 1 and Example 2, the brain cancer cell line U87 cells were cultured, and then each drug was administered to the cells, followed by analysis of the cell viability.

[4] = test system: U87 tumor spheroids; experiment: Tumor spheroid size/diameter of U87 cell line after drug administration; conditions: for size of the tumor spheroid cells (cell photographs): 14 days, gossypol 5 μM, phenformin 10 μM; for size of the cells (cell photographs): SGLT-2 inhibitor alone or in combination with gossypol and phenformin, FIG. 9
Method: The U87 cell line cells prepared according to the method of Example 1 were seeded into a 96-well plate at a density of 1.0×10^2 cells/well in DMEM media containing 2% Matrigel (Corning, NY, USA), and stabilized in a 5% CO2 incubator at 37° C. for 3 days to form tumor spheroids. After stabilization, the cells were cultured in a 5% CO2 incubator at 37° C. for 14 days. […] Referring to FIGS. 6b, 7b and 8b, the rate of change in diameter of the spheroid in the graph was calculated as a percentage based on the change in the average diameter after administration of each drug compared to the average diameter of tumor spheroid cells seeded in the 96-well plate.

[5] = test system: lung cancer line A549 cells; experiment: Oxygen consumption rate (OCR) during mitochondrial respiration, Seahorse XF24, A549; conditions: SGLT-2 inhibitor 50 μM, gossypol 5 μM, phenformin 10 μM, alone or in combination, overnight, FIG. 10
Method: In order to measure mitochondrial respiration, which is the main energy metabolic process of cells, the present inventors analyzed cellular oxygen consumption rate (OCR) by measuring intracellular oxygen concentration. The oxygen consumption rate that occurs during energy metabolism can be a measure of how actively cancer cell division occurs during the metabolic process of cancer cells. 1 mL of XF Calibrant buffer (Agilent Technologies) was added to a sensor cartridge (Agilent Technologies, Palo Alto, CA, USA) and incubated in a non-CO2 incubator overnight at 37° C. […] In addition, the XF24 microplate was placed in the Agilent seahorse XF24 (Agilent Technologies) instrument, and OCR was measured. Here, the measured values were compared with percentage values based on picomoles per minute (pM/min).

[6] = Comparative Example 1: canagliflozin 50 μM, FIG. 6a
[7] = Comparative Example 3: empagliflozin 75 μM, FIG. 8a

| Compound | synergistic effect when administered in combination with gossypol and phenformin [1] | cancer therapeutic effect of co-administration compared to SGLT-2 inhibitor alone [2] | cancer therapeutic effect of co-administration compared to SGLT-2 inhibitor alone [3] | size of the tumor spheroid cells (cell photographs) [4, 6] | size of the cells (cell photographs) [4] | size of the tumor spheroid cells (cell photographs) [4, 7] | oxygen consumption rate [5] | size of the tumor spheroid cells (cell photographs) ([4]; Comparative Example 2: dapagliflozin 75 μM, FIG. 7a) |
| --- | --- | --- | --- | --- | --- | --- | --- | --- |
| Cc1ccc([C@@H]2O[C@H](CO)[C@@H](O)[C@H](O)[C@H]2O)cc1Cc1ccc(-c2ccc(F)cc2)s1 [canagliflozin] | highest synergistic effect | more effective | better effect | decreased | decreased compared to that in the control group; also recorded: most significant reduction in the cell size |  |  |  |
| OC[C@H]1O[C@@H](c2ccc(Cl)c(Cc3ccc(O[C@H]4CCOC4)cc3)c2)[C@H](O)[C@@H](O)[C@@H]1O [empagliflozin] |  |  |  |  | decreased compared to that in the control group | decreased | also low |  |
| [H]/N=C(/N)N/C(=N/[H])NCCc1ccccc1 [phenformin] |  |  |  | decreased |  | decreased |  | decreased |
